Test results published in ChEMBL document CHEMBL1201862, “PubChem BioAssay data set” (2004).
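Test compounds were applied to cells in 96-well plates for 48 hours at 5 doses. GI50 = concentration required for 50% inhibition of growth.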 Activity calls are given as the source filed them. No stated cut-off is given here; in the data, active = GI50 up to about 1.1 µM and inactive = higher.

Tests used:
Test in all cases: DTP human tumour cell line panel, 48 h
786-0 = test system: 786-0
A498 = test system: A498
A549 = test system: A549
ACHN = test system: ACHN
BT-549 = test system: BT-549
CAKI-1 = test system: CAKI-1
CCRF-CEM = test system: CCRF-CEM
COLO 205 = test system: COLO 205
DU-145 = test system: DU-145
EKVX = test system: EKVX
HCT-116 = test system: HCT-116
HCT-15 = test system: HCT-15
HL-60 = test system: HL-60
HOP-62 = test system: HOP-62
HT-29 = test system: HT-29
Hs-578T = test system: Hs-578T
IGROV-1 = test system: IGROV-1
K562 = test system: K562
KM12 = test system: KM12
LOX IMVI = test system: LOX IMVI
M14 = test system: M14
MCF7 = test system: MCF7
MDA-MB-231 = test system: MDA-MB-231
MDA-MB-435 = test system: MDA-MB-435
MDA-N = test system: MDA-N
MOLT-4 = test system: MOLT-4
Malme-3M = test system: Malme-3M
NCI-H226 = test system: NCI-H226
NCI-H23 = test system: NCI-H23
NCI-H460 = test system: NCI-H460
NCI/ADR-RES = test system: NCI/ADR-RES
OVCAR-3 = test system: OVCAR-3
OVCAR-4 = test system: OVCAR-4
OVCAR-5 = test system: OVCAR-5
OVCAR-8 = test system: OVCAR-8
PC-3 = test system: PC-3
RPMI-8226 = test system: RPMI-8226
RXF 393 = test system: RXF 393
SF-268 = test system: SF-268
SF-295 = test system: SF-295
SF-539 = test system: SF-539
SK-MEL-28 = test system: SK-MEL-28
SK-MEL-2 = test system: SK-MEL-2
SK-MEL-5 = test system: SK-MEL-5
SK-OV-3 = test system: SK-OV-3
SN12C = test system: SN12C
SNB-19 = test system: SNB-19
SNB-75 = test system: SNB-75
SR = test system: SR
SW-620 = test system: SW-620
T47D = test system: T47D
TK-10 = test system: TK-10
U-251 = test system: U-251
UACC-257 = test system: UACC-257
UACC-62 = test system: UACC-62
UO-31 = test system: UO-31
HCC 2998 = test system: HCC 2998
HOP-92 = test system: HOP-92
NCI-H522 = test system: NCI-H522

For `CC[C@]12C=CCN3CC[C@@]4(c5cc(Br)c(OC)c([N+](=O)[O-])c5N(C)[C@H]4[C@@](O)(C(=O)OC)[C@@H]1OC(C)=O)[C@@H]32`, the GI50 (786-0) was 94.6 µM (inactive), the GI50 (A498) was 44.5 µM (inactive) and the GI50 (A549) was 39.8 µM (inactive). The GI50 (ACHN) was 62.4 µM (inactive), the GI50 (BT-549) was > 100 µM (inactive) and the GI50 (CAKI-1) was 40.3 µM (inactive). The GI50 (CCRF-CEM) was 24.7 µM (inactive), the GI50 (COLO 205) was 27.8 µM (inactive) and the GI50 (DU-145) was 98.2 µM (inactive). The GI50 (EKVX) was 29.6 µM (inactive), the GI50 (HCT-116) was 45.8 µM (inactive) and the GI50 (HCT-15) was 65.3 µM. The GI50 (HL-60) was 33.7 µM (inactive), the GI50 (HOP-62) was 87.5 µM (inactive) and the GI50 (HT-29) was > 100 µM (inactive). The GI50 (Hs-578T) was 36.1 µM (inactive), the GI50 (IGROV-1) was 24.1 µM (inactive) and the GI50 (K562) was 0.443 µM (active). For the same molecule, the GI50 (KM12) was 47.6 µM (inactive), the GI50 (LOX IMVI) was 34.6 µM (inactive) and the GI50 (M14) was 55.7 µM (inactive). The GI50 (MCF7) was 37.4 µM (inactive), the GI50 (MDA-MB-231) was > 100 µM (inactive) and the GI50 (MDA-MB-435) was 35.1 µM (inactive). For the same molecule, the GI50 (MDA-N) was 37.2 µM (inactive), the GI50 (MOLT-4) was 13.2 µM (inactive) and the GI50 (Malme-3M) was 89.5 µM (inactive). The GI50 (NCI-H226) was 21.8 µM (inactive), the GI50 (NCI-H23) was 56.9 µM (inactive) and the GI50 (NCI-H460) was 40.8 µM (inactive). The GI50 (NCI/ADR-RES) was 48.1 µM (inactive), the GI50 (OVCAR-3) was 34.4 µM (inactive) and the GI50 (OVCAR-4) was 52.8 µM (inactive). For the same molecule, the GI50 (OVCAR-5) was > 100 µM (inactive), the GI50 (OVCAR-8) was 30.5 µM (inactive) and the GI50 (PC-3) was 40.4 µM (inactive). For the same molecule, the GI50 (RPMI-8226) was 6.52 µM (inactive), the GI50 (RXF 393) was 98.2 µM (inactive) and the GI50 (SF-268) was 30.1 µM (inactive). The GI50 (SF-295) was 37 µM (inactive), the GI50 (SF-539) was > 100 µM (inactive) and the GI50 (SK-MEL-28) was 63.4 µM (inactive). For the same molecule, the GI50 (SK-MEL-2) was 74.1 µM (inactive), the GI50 (SK-MEL-5) was 36.2 µM (inactive) and the GI50 (SK-OV-3) was > 100 µM (inactive). For the same molecule, the GI50 (SN12C) was 88.7 µM (inactive), the GI50 (SNB-19) was 71.9 µM (inactive) and the GI50 (SNB-75) was 30.5 µM (inactive). For the same molecule, the GI50 (SR) was 25.7 µM (inactive), the GI50 (SW-620) was 23.8 µM (inactive) and the GI50 (T47D) was 50.4 µM (inactive). The GI50 (TK-10) was > 100 µM (inactive), the GI50 (U-251) was 43.4 µM (inactive) and the GI50 (UACC-257) was 33.3 µM (inactive). The GI50 (UACC-62) was > 100 µM (inactive) and the GI50 (UO-31) was 89.5 µM (inactive).
In the case of `CCOC(=O)NC(OCc1ccccc1)(C(=O)OC)C(F)(F)F` (stereo not given), the GI50 (A549) is reported as > 100 µM (inactive), the GI50 (ACHN) is reported as > 100 µM (inactive) and the GI50 (BT-549) is reported as > 100 µM (inactive). For the same molecule, the GI50 (CAKI-1) was 8.2 µM (inactive), the GI50 (CCRF-CEM) was > 100 µM (inactive) and the GI50 (COLO 205) was > 100 µM (inactive). The GI50 (DU-145) was > 100 µM (inactive), the GI50 (EKVX) was > 100 µM (inactive) and the GI50 (HCC 2998) was > 100 µM (inactive). For the same molecule, the GI50 (HCT-116) was > 100 µM (inactive), the GI50 (HCT-15) was > 100 µM and the GI50 (HL-60) was > 100 µM (inactive). The GI50 (HOP-92) was > 100 µM (inactive), the GI50 (HT-29) was > 100 µM (inactive) and the GI50 (Hs-578T) was > 100 µM (inactive). For the same molecule, the GI50 (IGROV-1) was > 100 µM (inactive), the GI50 (K562) was > 100 µM (inactive) and the GI50 (KM12) was > 100 µM (inactive). For the same molecule, the GI50 (LOX IMVI) was > 100 µM (inactive), the GI50 (M14) was > 100 µM (inactive) and the GI50 (MCF7) was > 100 µM (inactive). For the same molecule, the GI50 (MDA-MB-231) was > 100 µM (inactive), the GI50 (MDA-MB-435) was > 100 µM (inactive) and the GI50 (MDA-N) was > 100 µM (inactive). For the same molecule, the GI50 (MOLT-4) was > 100 µM (inactive), the GI50 (NCI-H23) was > 100 µM (inactive) and the GI50 (NCI-H460) was > 100 µM (inactive). The GI50 (NCI-H522) was > 100 µM (inactive), the GI50 (NCI/ADR-RES) was > 100 µM (inactive) and the GI50 (OVCAR-3) was > 100 µM (inactive). The GI50 (OVCAR-4) was > 100 µM (inactive), the GI50 (OVCAR-5) was > 100 µM (inactive) and the GI50 (OVCAR-8) was > 100 µM (inactive). For the same molecule, the GI50 (PC-3) was > 100 µM (inactive), the GI50 (RPMI-8226) was > 100 µM (inactive) and the GI50 (RXF 393) was > 100 µM (inactive). For the same molecule, the GI50 (SF-268) was > 100 µM (inactive), the GI50 (SF-295) was > 100 µM (inactive) and the GI50 (SF-539) was > 100 µM (inactive). The GI50 (SK-MEL-28) was > 100 µM (inactive), the GI50 (SK-MEL-2) was > 100 µM (inactive) and the GI50 (SK-MEL-5) was > 100 µM (inactive). The GI50 (SK-OV-3) was > 100 µM (inactive), the GI50 (SN12C) was > 100 µM (inactive) and the GI50 (SNB-19) was > 100 µM (inactive). For the same molecule, the GI50 (SNB-75) was > 10 µM (inactive), the GI50 (SR) was > 100 µM (inactive) and the GI50 (SW-620) was > 100 µM (inactive). The GI50 (T47D) was > 100 µM (inactive), the GI50 (TK-10) was > 100 µM (inactive) and the GI50 (U-251) was > 100 µM (inactive). The GI50 (UACC-257) was > 100 µM (inactive), the GI50 (UACC-62) was > 100 µM (inactive) and the GI50 (UO-31) was > 100 µM (inactive).
